Like-named read-outs stand apart in the source and are kept apart here.
How the values were obtained:
[1] = target: T1, human 5-hydroxytryptamine-2C (h-5-HT2C) receptor (Homo sapiens, UniProt P28335); test: [125I]DOI binding to membranes of CHO cells expressing the h-5-HT2C receptor
T1 sequence (P28335 33-458): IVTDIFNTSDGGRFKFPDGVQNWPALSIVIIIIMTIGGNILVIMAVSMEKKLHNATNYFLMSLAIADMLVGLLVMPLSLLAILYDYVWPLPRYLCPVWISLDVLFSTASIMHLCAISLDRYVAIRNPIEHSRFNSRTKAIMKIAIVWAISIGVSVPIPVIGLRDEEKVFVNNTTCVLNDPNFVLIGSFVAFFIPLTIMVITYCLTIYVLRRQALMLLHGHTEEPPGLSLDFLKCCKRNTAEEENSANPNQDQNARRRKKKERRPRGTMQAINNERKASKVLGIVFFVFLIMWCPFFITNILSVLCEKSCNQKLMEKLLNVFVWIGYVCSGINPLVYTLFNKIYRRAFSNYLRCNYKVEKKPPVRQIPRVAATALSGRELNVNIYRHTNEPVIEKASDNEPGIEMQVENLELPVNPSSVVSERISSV

human 5-HT2C receptor = target: T2, human 5-HT2C receptor (Homo sapiens, UniProt P28335); test: 5-HT2C receptor-stimulated calcium mobilization (FLIPR) in CHO cells; type: cell-based; conditions: for Emax: CHO, read-out: 5-HT2C Function Emax (%)
T2 sequence (P28335 33-458): T1 sequence (P28335 33-458)

[2] = 5-HT2c Affinity KI (nM), displacement of [125I]DOI, CHO cell membranes
[3] = calcium mobilization, CHO cells stably expressing human 5-HT2C, read-out: 5-HT2C Function EC50

With `Fc1ccc2c3c1[C@H]1CCCC[C@H]1N3CCNCC2` (single isomer, unassigned) [Example 32, (+)-(8bR*,12aR*)-8-Fluoro-2,3,4,5,8b,9,10,11,12,12a-decahydro-1H-[1,4]diazocino[7,8,1-jk]carbazole] the Ki [1, 2] was 2 nM.
`Fc1ccc2c3c1[C@H]1CCCC[C@H]1N3CCNCC2` (single isomer, unassigned) [Example 33, (−)-(8bR*,12aR*)-8-Fluoro-2,3,4,5,8b,9,10,11,12,12a-decahydro-1H-[1,4]diazocino[7,8,1-jk]carbazole] showed a Ki [1, 2] of 1.4 nM.
`Clc1ccc2c3c1[C@H]1CCCC[C@H]1N3CCNCC2` (single isomer, unassigned) [Example 42, (+)-(8bR*,12aR*)-8-Chloro-2,3,4,5,8b,9,10,11,12,12a-decahydro-1H-[1,4]diazocino[7,8,1-jk]carbazole] gave a Ki [1, 2] of 5.1 nM.
With `Clc1ccc2c3c1[C@H]1CCCC[C@H]1N3CCNCC2` (single isomer, unassigned) [Example 43, (−)-(8bR*,12aR*)-8-Chloro-2,3,4,5,8b,9,10,11,12,12a-decahydro-1H-[1,4]diazocino[7,8,1-jk]carbazole] the Ki [1, 2] was 7 nM.
Compound `c1cc2c3c(c1)[C@H]1CCC[C@H]1N3CCNCC2` (single isomer, unassigned) [Example 45, (+)-(8bR*,11aR*)-2,3,4,5,9,10,11,11a-Octahydro-1H,8bH-cyclopenta[b][1,4]diazocino[7,8,1-hi]indole] has a Ki [1, 2] of 362 nM.
`c1cc2c3c(c1)[C@H]1CCC[C@H]1N3CCNCC2` (single isomer, unassigned) [Example 46, (−)-(8bR*,11aR*)-2,3,4,5,9,10,11,11a-Octahydro-1H,8bH-cyclopenta[b][1,4]diazocino[7,8,1-hi]indole] was tested, and the Ki [1, 2] was 19 nM, the EC50 (human 5-HT2C receptor) was 38 nM and the Emax (human 5-HT2C receptor) was 70%.
With `c1cc2c3c(c1)[C@H]1CCCC[C@H]1N3CCNCC2` (single isomer, unassigned) [Example 47, (+)-(8bR*,12aR*)-2,3,4,5,8b,9,10,11,12,12a-Decahydro-1H-[1,4]diazocino[7,8,1-jk]carbazole] the Ki [1, 2] was 135 nM.
`c1cc2c3c(c1)[C@H]1CCCC[C@H]1N3CCNCC2` (single isomer, unassigned) [Example 48, (−)-(8bR*,12aR*)-2,3,4,5,8b,9,10,11,12,12a-Decahydro-1H[1,4]diazocino[7,8,1-jk]carbazole] gave a Ki [1, 2] of 17 nM, an EC50 (human 5-HT2C receptor) of 42 nM and an Emax (human 5-HT2C receptor) of 70%.
`c1cc2c3c(c1)c1c(n3CCNCC2)CCC1` [Example 2, 2,3,4,5,10,11-Hexahydro-1H,9H-cyclopenta[b][1,4]diazocino[7,8,1-hi]indole] showed a Ki [1, 2] of 38 nM, an EC50 (human 5-HT2C receptor) of 20 nM and an Emax (human 5-HT2C receptor) of 80%.
In the case of `CN1CCc2cccc3c2N(CC1)C1CCCC31` (centres unmarked) [Example 3, 3-Methyl-2,3,4,5,9,10,11,11a-octahydro-1H,8bH-cyclopenta[b][1,4]diazocino[7,8,1-hi]indole], the Ki [1, 2] is reported as 41 nM, the EC50 (human 5-HT2C receptor) is reported as 37 nM and the Emax (human 5-HT2C receptor) is reported as 50%.
`c1cc2c3c(c1)C1CCCC1N3CCNCC2` (centres unmarked) [Example 4, 2,3,4,5,9,10,11,11a-Octahydro-1H,8bH-cyclopenta[b][1,4]diazocino[7,8,1-hi]indole] gave a Ki [1, 2] of 31 nM, an EC50 (human 5-HT2C receptor) of 18 nM and an Emax (human 5-HT2C receptor) of 90%.
`c1cc2c3c(c1)c1c(n3CCNCC2)CCCC1` [Example 6, 2,3,4,5,9,10,11,12-Octahydro-1H-[1,4]diazocino[7,8,1-jk]carbazole] was tested, and the Ki [1, 2] was 4 nM, the EC50 (human 5-HT2C receptor) was 6 nM and the Emax (human 5-HT2C receptor) was 80%.
`CN1CCc2cccc3c2N(CC1)C1CCCCC31` (centres unmarked) [Example 7, 3-Methyl-2,3,4,5,8b,9,10,11,12,12a-decahydro-1H-[1,4]diazocino[7,8,1-jk]carbazole] gave a Ki [1, 2] of 24 nM, an EC50 (human 5-HT2C receptor) of 74 nM and an Emax (human 5-HT2C receptor) of 60%.
`c1cc2c3c(c1)C1CCCCC1N3CCNCC2` (centres unmarked) [Example 8, 2,3,4,5,8b,9,10,11,12,12a-Decahydro-1H-[1,4]diazocino[7,8,1-jk]carbazole] gave a Ki [1, 2] of 22 nM, an EC50 (human 5-HT2C receptor) of 18 nM and an Emax (human 5-HT2C receptor) of 80%.
Compound `CN1CCc2cccc3c4c(n(c23)CC1)CCCCC4` [Example 9, 3-Methyl-2,3,4,5,10,11,12,13-octahydro-1H,9H-cyclohepta[b][1,4]diazocino[7,8,1-hi]indole] has a Ki [1, 2] of 19 nM, an Emax (human 5-HT2C receptor) of 25% and an EC50 (human 5-HT2C receptor; [3]) of 275 nM.
For `c1cc2c3c(c1)c1c(n3CCNCC2)CCCCC1` [Example 10, 2,3,4,5,10,11,12,13-Octahydro-1H,9H-cyclohepta[b]1,4]diazocino[7,8,1-hi]indole], the Ki [1, 2] was 38 nM, the Emax (human 5-HT2C receptor) was 90% and the EC50 (human 5-HT2C receptor; [3]) was 156 nM.
`CN1CCc2c(Cl)ccc3c2N(CC1)C1CCCC31` (centres unmarked) [Example 15, 6-Chloro-3-Methyl-2,3,4,5,9,10,11,11a-octahydro-1H,8bH-cyclopenta[b][1,4]diazocino[7,8,1-hi]indole] was tested, and the Ki ([1]; read-out: 5-HT2c Affinity KI) was 131 nM.
`CN1CCc2c(Cl)ccc3c2N(CC1)C1CCCCCC31` (centres unmarked) [Example 16, 6-Chloro-3-methyl-2,3,4,5,9,10,11,12,13,13a-decahydro-1H,8bH-cyclohepta[b][1,4]diazocino[7,8,1-hi]indole] was tested, and the Ki [1, 2] was 84 nM.
`Clc1ccc2c3c(n4c2c1CCNCC4)CCC3` [Example 17, 6-Chloro-2,3,4,5,10,11-hexahydro-1H,9H-cyclopenta[b][1,4]diazocino[7,8,1-hi]indole] was tested, and the Ki ([1]; read-out: 5-HT2c Affinity KI) was 156 nM.
For `Clc1ccc2c3c(n4c2c1CCNCC4)CCCC3` [Example 18, 6-Chloro-2,3,4,5,9,10,11,12-octahydro-1H-[1,4]diazocino[7,8,1-jk]carbazole], the Ki [1, 2] was 83 nM.
In the case of `Clc1ccc2c3c(n4c2c1CCNCC4)CCCCC3` [Example 19, 6-Chloro-2,3,4,5,10,11,12,13-octahydro-1H,9H-cyclohepta[b][1,4]diazocino[7,8,1-hi]indole], the Ki ([1]; read-out: 5-HT2c Affinity KI) is reported as 4970 nM.
For `Clc1ccc2c3c1CCNCCN3C1CCCC21` (centres unmarked) [Example 20, 6-Chloro-2,3,4,5,9,10,11,11a-octahydro-1H,8bH-cyclopenta[b][1,4]diazocino[7,8,1-hi]indole], the Ki ([1]; read-out: 5-HT2c Affinity KI) was 111 nM.
Compound `CCN1CCc2c(Cl)ccc3c2N(CC1)C1CCCC31` (centres unmarked) [Example 21, 6-Chloro-3-ethyl-2,3,4,5,9,10,11,11a-octahydro-1H,8bH-cyclopenta[b][1,4]diazocino[7,8,1-hi]indole] has a Ki ([1]; read-out: 5-HT2c Affinity KI) of 137 nM.
`CCN1CCc2c(Cl)ccc3c2N(CC1)C1CCCCC31` (centres unmarked) [Example 23, 6-Chloro-3-ethyl-2,3,4,5,8b,9,10,11,12,12a-decahydro-1H-[1,4]diazocino[7,8,1-jk]carbazole] gave a Ki ([1]; read-out: 5-HT2c Affinity KI) of 116 nM.
Work on `CN1CCc2ccc(F)c3c4c(n(c23)CC1)CCC4` [Example 24, 8-Fluoro-3-methyl-2,3,4,5,10,11-hexahydro-1H,9H-cyclopenta[b][1,4]diazocino[7,8,1-hi]indole] yielded a Ki [1, 2] of 93 nM.
Compound `CN1CCc2ccc(F)c3c4c(n(c23)CC1)CCCC4` [Example 25, 8-Fluoro-3-methyl-2,3,4,5,9,10,11,12-octahydro-1H-[1,4]diazocino[7,8,1-jk]carbazole] has a Ki [1, 2] of 68 nM.
For `CN1CCc2ccc(F)c3c2N(CC1)C1CCCC31` (centres unmarked) [Example 26, 8-Fluoro-3-methyl-2,3,4,5,9,10,11,11a-octahydro-1H,8bH-cyclopenta[b][1,4]diazocino[7,8,1-hi]indole], the Ki ([1]; read-out: 5-HT2c Affinity KI) was 176 nM.
`CN1CCc2cccc3c2N(CC1)C1CCSCC31` (centres unmarked) [Example 44, 3-Methyl-2,3,4,5,9,10,11,12-octahydro-1H,9H-[1,4]diazocino[7,8,1-hi]thiopyrano[4,3-b]indole] gave a Ki ([1]; read-out: 5-HT2c Affinity KI) of 1720 nM.
Work on `CSc1ccc2c(c1)C(N1CCN(C)CC1)Cc1ccccc1S2` (centres unmarked) [Methiothepin, reference compound] yielded a Ki ([1]; reference compounds, displacement of [125I]DOI, CHO cell membranes, read-out: Ki (95% confidence interval)) of 4.6 nM.
In the case of `COc1cc(CC(C)N)c(OC)cc1I` (centres unmarked) [[^125I] DOI, reference compound], the Kd ([1]; saturation binding with increasing concentrations of [125I]DOI, read-out: dissociation constant, KD) is reported as 0.4 nM.

Source: US7012089B2, “[1,4]Diazocino[7,8,1-hi]indole derivatives as antipsychotic and antiobesity agents” (Wyeth, priority 2002, dated 2006)
